Laboratory results taken from US20240166647A1, “Cereblon Ligands” (THE REGENTS OF THE UNIVERSITY OF MICHIGAN, priority 2021, published 2024).

Target: T1, GST-tagged wild-type human CRBN protein (Homo sapiens, UniProt Q96SW2)
T1 construct: purchased Cisbio 64BDCRBNPEG
Assay: Cereblon Binding Assay (Cisbio Cereblon Binding Kit, TR-FRET)
Details: TR-FRET competition with XL665-labelled Thalidomide, room temperature about 3 hours
Method: In some embodiments, the biological assay may involve evaluation of CRBN binding activity, e.g., in Cereblon Binding Kit (Cisbio, #64BDCRBNPEG).
In some embodiments, the cell line is maintained and cultured, e.g., at room temperature for about 3 hours.
In some embodiments, the Fluorescence Resonance Energy Transfer (TR-FRET) measurements of the cell line is recorded and evaluated.
Procedure for Cereblon Binding Assay. The binding to cereblon (CRBN) was determined using the Cereblon Binding Kit (Cisbio, #64BDCRBNPEG) following the manufacturer's instruction. Briefly, serially diluted compounds were incubated with GST-tagged wild-type human CRBN protein, XL665-labelled Thalidomide and Europium Cryptate labelled GST antibody at room temperature for about 3 hours. […] The readings were normalized to the control (0.5%) and the ICso was calculated by nonlinear regression (four parameters sigmoid fitted with variable slope) analysis using the GraphPad Prism 8 software.

T1 sequence (Q96SW2 whole entry): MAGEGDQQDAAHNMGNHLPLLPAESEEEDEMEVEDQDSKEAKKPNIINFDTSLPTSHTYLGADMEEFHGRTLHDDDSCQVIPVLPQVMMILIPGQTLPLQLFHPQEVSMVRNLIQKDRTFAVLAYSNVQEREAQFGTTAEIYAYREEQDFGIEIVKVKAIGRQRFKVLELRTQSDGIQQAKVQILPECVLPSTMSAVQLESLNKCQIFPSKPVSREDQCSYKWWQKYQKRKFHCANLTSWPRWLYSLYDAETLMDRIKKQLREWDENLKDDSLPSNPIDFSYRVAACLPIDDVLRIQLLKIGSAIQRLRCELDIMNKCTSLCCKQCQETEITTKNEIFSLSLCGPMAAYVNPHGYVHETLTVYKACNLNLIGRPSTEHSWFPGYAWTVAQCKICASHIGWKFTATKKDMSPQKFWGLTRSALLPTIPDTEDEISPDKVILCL

Compound | IC50 [µM]
O=C1CCC(N2C(=O)c3cc4c(cc3C2=O)CC(CN2CC3(CN(Cc5ccc(F)cc5)C3)C2)C4)C(=O)N1 (stereo not shown) [Example 229] | 0.5 to 1
O=C1CCC(N2C(=O)c3cc4c(cc3C2=O)CN(Cc2ccc(F)cc2)CC4)C(=O)N1 (stereo not shown) [Example 221] | 0.5 to 1
O=C1CCC(N2C(=O)c3cc4c(cc3C2=O)CN(C2CNC2)C4)C(=O)N1 (stereo not shown) [Example 260] | < 0.5
CC(C)(C)OC(=O)N1CCC(F)(CN2Cc3cc4c(cc3C2)C(=O)N(C2CCC(=O)NC2=O)C4=O)CC1 (stereo not shown) [Example 270] | 0.5 to 1
O=C(O)CCCN1CCc2cc3c(cc2C1)C(=O)N(C1CCC(=O)NC1=O)C3=O (stereo not shown) [Example 242] | 1 to 10
NC1CCC(N2Cc3cc4c(cc3C2)C(=O)N(C2CCC(=O)NC2=O)C4=O)CC1 (stereo not shown) [Example 248] | < 0.5
O=C1CCC(N2C(=O)c3cc4c(cc3C2=O)CN(C2CCNCC2)C4)C(=O)N1 (stereo not shown) [Example 265] | 0.5 to 1
O=C(O)CCN1Cc2cc3c(cc2C1)C(=O)N(C1CCC(=O)NC1=O)C3=O (stereo not shown) [Example 239] | < 0.5
O=C1CCC(N2Cc3cc4c(cc3C2=O)CN(C(=O)c2cccc3c2CCC3)C4)C(=O)N1 (stereo not shown) [Example 225] | < 0.5
O=C(O)CN1Cc2cc3c(cc2C1)C(=O)N(C1CCC(=O)NC1=O)C3=O (stereo not shown) [Example 236] | < 0.5
O=C1CCC(N2Cc3cc4c(cc3C2=O)CNC4)C(=O)N1 (stereo not shown) [Example 274] | 1 to 10
O=C1CCC(N2Cc3cc4c(cc3C2=O)CN(CC2CN(Cc3ccc(F)c(F)c3)C2)C4=O)C(=O)N1 (stereo not shown) [Example 231] | 0.5 to 1
O=C1CCC(N2Cc3cc4c(cc3C2=O)CN(C2CN(Cc3ccc(F)c(F)c3)C2)C4=O)C(=O)N1 (stereo not shown) [Example 230] | 0.5 to 1
O=C1CCC(N2C(=O)c3cc4c(cc3C2=O)CN(C(=O)C2CCNCC2)C4)C(=O)N1 (stereo not shown) [Example 253] | < 0.5
O=C1CCC(N2C(=O)c3ccc4c(c3C2=O)CNC4)C(=O)N1 (stereo not shown) [Example 219] | 1 to 10
CC(=O)N1CC(N2Cc3cc4c(cc3C2=O)CN(C2CCC(=O)NC2=O)C4=O)C1 (stereo not shown) [Example 233] | 1 to 10
O=C1CCC(N2Cc3cc4c(cc3C2)C(=O)N(C2CCC(=O)NC2=O)C4=O)CC1 (stereo not shown) [Example 247] | 0.5 to 1
O=C1CCC(N2C(=O)c3cc4c(cc3C2=O)CN([C@H]2C[C@H](C(=O)O)C2)C4)C(=O)N1 (stereo partly shown) [Example 259] | 0.5 to 1
O=C(O)CCCN1Cc2cc3c(cc2C1)C(=O)N(C1CCC(=O)NC1=O)C3=O (stereo not shown) [Example 240] | < 0.5
O=C1CCC(N2C(=O)c3cc4c(cc3C2=O)CN(C2CC3(CCNCC3)C2)C4)C(=O)N1 (stereo not shown) [Example 261] | 1 to 10

Compound | IC50 [µM]
O=C1CCC(N2Cc3cc4c(cc3C2=O)CN(C2CCNCC2)C4=O)C(=O)N1 (stereo not shown) [Example 256] | < 0.5
O=C(O)CN1CCc2cc3c(cc2CC1)C(=O)N(C1CCC(=O)NC1=O)C3=O (stereo not shown) [Example 243] | 0.5 to 1
O=C1CCC(N2C(=O)c3cc4c(cc3C2=O)CN(Cc2cccc3c2OCCO3)C4)C(=O)N1 (stereo not shown) [Example 224] | < 0.5
COc1c2c(cc3c1CN(C1CCC(=O)NC1=O)C3=O)CN(Cc1ccccc1)C2 (stereo not shown) [Example 220] | < 0.5
O=C1CCC(N2C(=O)c3cc4c(cc3C2=O)CNCC4)C(=O)N1 (stereo not shown) [Example 258] | 1 to 10
O=C1CCC(N2C(=O)c3cc4c(cc3C2=O)CN(Cc2ccc(F)nc2)C4)C(=O)N1 (stereo not shown) [Example 245] | < 0.5
O=C1CCC(N2C(=O)c3cc4c(cc3C2=O)CN(Cc2cnc(Cl)nc2)C4)C(=O)N1 (stereo not shown) [Example 246] | 1 to 10
O=C1CCC(N2Cc3cc4c(cc3C2=O)CN(Cc2ccc(F)cc2)C4)C(=O)N1 (stereo not shown) [Example 222] | < 0.5
O=C1CCC(N2Cc3cc4c(cc3C2=O)CN(C(=O)C2CCNCC2)C4)C(=O)N1 (stereo not shown) [Example 254] | < 0.5
O=C1CCC(N2C(=O)c3cc4c(cc3C2=O)CN(C2CCCC23CCNCC3)C4)C(=O)N1 (stereo not shown) [Example 262] | 1 to 10
CNC1CCC(N2Cc3cc4c(cc3C2)C(=O)N(C2CCC(=O)NC2=O)C4=O)CC1 (stereo not shown) [Example 244] | < 0.5
O=C1CCC(N2Cc3cc4c(cc3C2=O)CC2(CNC2)C4)C(=O)N1 (stereo not shown) [Example 218] | 1 to 10
CC1(CN2Cc3cc4c(cc3C2)C(=O)N(C2CCC(=O)NC2=O)C4=O)CCN(C(=O)OC(C)(C)C)CC1 (stereo not shown) [Example 269] | < 0.5
O=C1CCC(N2Cc3cc4c(cc3C2=O)CN(CC2CCNCC2)C4)C(=O)N1 (stereo not shown) [Example 263] | 0.5 to 1
O=C1CCC(N2C(=O)c3cc4c(cc3C2=O)CN(CC2CCN(c3ccc(C(=O)O)cc3)CC2)C4)C(=O)N1 (stereo not shown) [Example 272] | < 0.5
O=C1CCC(N2Cc3cc4c(cc3C2)C(=O)N(C2CCC(=O)NC2=O)C4)CC1 (stereo not shown) [Example 249] | 0.5 to 1
O=C1CCC(N2C(=O)c3cc4c(cc3C2=O)CN(C(=O)C2CCC3(CCNCC3)CC2)C4)C(=O)N1 (stereo not shown) [Example 250] | < 0.5
O=C(O)CN1CCc2cc3c(cc2C1)C(=O)N(C1CCC(=O)NC1=O)C3=O (stereo not shown) [Example 238] | 1 to 10
O=C1CCC(N2Cc3cc4c(cc3C2=O)CN(C2CCNCC2)C4)C(=O)N1 (stereo not shown) [Example 267] | 1 to 10
O=C1CCC(N2C(=O)c3cc4c(cc3C2=O)CC2(CNC2)C4)C(=O)N1 (stereo not shown) [Example 217] | > 10

Compound | IC50 [µM]
O=C(O)CCN1CCc2cc3c(cc2C1)C(=O)N(C1CCC(=O)NC1=O)C3=O (stereo not shown) [Example 241] | 0.5 to 1
CCN1CC(N2Cc3cc4c(cc3C2=O)CN(C2CCC(=O)NC2=O)C4=O)C1 (stereo not shown) [Example 232] | 0.5 to 1
COc1c2c(cc3c1CN(C1CCC(=O)NC1=O)C3=O)CNC2 (stereo not shown) [Example 275] | 0.5 to 1
O=C1CCC(N2C(=O)c3cc4c(cc3C2=O)CCN(Cc2ccc(F)cc2)CC4)C(=O)N1 (stereo not shown) [Example 223] | 1 to 10
O=C1CCC(N2Cc3cc4c(cc3C2=O)CC2(C4)CN(Cc3ccc(F)cc3)C2)C(=O)N1 (stereo not shown) [Example 235] | 0.5 to 1
O=C1CCC(N2C(=O)c3cc4c(cc3C2=O)CN(C2CCC3(CCNCC3)CC2)C4)C(=O)N1 (stereo not shown) [Example 266] | < 0.5
O=C1CCC(N2Cc3cc4c(cc3C2=O)CN(C(=O)c2cccc3c2OCO3)C4)C(=O)N1 (stereo not shown) [Example 226] | < 0.5
O=C1CCC(N2C(=O)c3cc4c(cc3C2=O)CN(Cc2ccc(C(F)(F)F)cc2)CCC4)C(=O)N1 (stereo not shown) [Example 227] | 0.5 to 1
O=C(O)CN1Cc2cc3c(cc2C1)C(=O)N(C1CCC(=O)NC1=O)C3 (stereo not shown) [Example 237] | < 0.5
COC1(CN2Cc3cc4c(cc3C2)C(=O)N(C2CCC(=O)NC2=O)C4=O)CCN(C(=O)OC(C)(C)C)CC1 (stereo not shown) [Example 268] | 0.5 to 1
O=C1CCC(C(=O)N2Cc3cc4c(cc3C2)C(=O)N(C2CCC(=O)NC2=O)C4=O)CC1 (stereo not shown) [Example 252] | < 0.5
O=C1CCC(N2C(=O)c3cc4c(cc3C2=O)CC(CN2CCC(Cc3ccc(F)cc3)CC2)C4)C(=O)N1 (stereo not shown) [Example 228] | < 0.5
O=C1CCC(N2C(=O)c3cc4c(cc3C2=O)CN(C2CCNC2)C4)C(=O)N1 (stereo not shown) [Example 264] | < 0.5
O=C1CCC(N2C(=O)c3cc4c(cc3C2=O)CN(CC2CN(c3ccc(C(=O)O)cc3)C2)C4)C(=O)N1 (stereo not shown) [Example 271] | < 0.5
O=C1CCC(N2C(=O)c3ccc4c(c3C2=O)CNCC4)C(=O)N1 (stereo not shown) [Example 255] | 1 to 10
O=C1CCC(N2C(=O)c3cc4c(cc3C2=O)CCNCC4)C(=O)N1 (stereo not shown) [Example 257] | 1 to 10
COc1c2c(cc3c1C(=O)N(C1CCC(=O)NC1=O)C3=O)CN(CC1CN(Cc3ccc(F)cc3Cl)C1)C2 (stereo not shown) [Example 234] | 0.5 to 1
O=C1CCC(N2C(=O)c3cc4c(cc3C2=O)CN(C2CCC(C(=O)O)CC2)C4)C(=O)N1 (stereo not shown) [Example 251] | 0.5 to 1
